{
  "source": "patent US8173797B2",
  "about": "(Cornell Research Foundation, Inc., priority 2004, dated 2012)",
  "experiment": "solubility in aprotic NMR solvents",
  "type": "physicochemical",
  "data": [
    {"smiles": "CC1OC(OC2C(O)C(C)OC(OC3C(COS(=O)(=O)O)OC(n4cnc5c(=O)[nH]c(N)nc54)C3O)C2O)C(O)C(O)C1O", "note": "(stereo not shown) [Compound 2]", "values": [
      {"measurement": "solubility", "result": "quite insoluble"}
    ]}
  ]
}
